Assay results taken from the CheMixHub viscosity set.

Assay: xn = mol fraction of the nth substance listed

O=CN1CCOCC1 + CCc1ccccc1
298.15 K, 101.3 kPa
Settings	viscosity [mPa·s]
x2 = 0.03224	6.848
x2 = 0.06252	6.122
x2 = 0.08602	5.678
x2 = 0.1584	4.43
x2 = 0.2704	3.151
x2 = 0.3512	2.527
x2 = 0.4701	1.841
x2 = 0.5569	1.511
x2 = 0.6373	1.261
x2 = 0.6888	1.137
x2 = 0.7771	0.986
x2 = 0.8636	0.829
x2 = 0.9317	0.713

CCCCCCn1cc[n+](C)c1.[Cl-] + CN1CCCC1=O
100 kPa
Settings	viscosity [mPa·s]
293.15 K, x1 = 0.0917	4.165
293.15 K, x1 = 0.3673	49.65
298.15 K, x1 = 0.1861	8.485
303.15 K, x1 = 0.3673	31.75
308.15 K, x1 = 0.1861	6.465

OCCO + CN1CCCC1=O
101.33 kPa
Settings	viscosity [mPa·s]
298.15 K, x2 = 0.04751	15.44
298.15 K, x2 = 0.09916	13.78
298.15 K, x2 = 0.1991	10.76
298.15 K, x2 = 0.3018	8.242
298.15 K, x2 = 0.4012	6.415
298.15 K, x2 = 0.5073	4.977
298.15 K, x2 = 0.6067	3.952
298.15 K, x2 = 0.7014	3.171
298.15 K, x2 = 0.8018	2.527
298.15 K, x2 = 0.9001	2.066
298.15 K, x2 = 0.9545	1.852
308.15 K, x2 = 0.04799	10.58
308.15 K, x2 = 0.1004	9.465
308.15 K, x2 = 0.2025	7.514
308.15 K, x2 = 0.3042	5.982
308.15 K, x2 = 0.4097	4.697
308.15 K, x2 = 0.5032	3.855
308.15 K, x2 = 0.6042	3.122
308.15 K, x2 = 0.6992	2.566
308.15 K, x2 = 0.7967	2.112
308.15 K, x2 = 0.9027	1.716
308.15 K, x2 = 0.9599	1.543
318.15 K, x2 = 0.04516	7.524
318.15 K, x2 = 0.1031	6.736
318.15 K, x2 = 0.1996	5.567
318.15 K, x2 = 0.2999	4.538
318.15 K, x2 = 0.4047	3.687
318.15 K, x2 = 0.5078	3.015
318.15 K, x2 = 0.6054	2.505
318.15 K, x2 = 0.6952	2.124
318.15 K, x2 = 0.7968	1.771
318.15 K, x2 = 0.8899	1.498
318.15 K, x2 = 0.9612	1.327

CCCCCC(C)O (configuration not stated) + CN(C)C=O
viscosity [mPa·s], 101 kPa
Settings	x2 = 0.1086	x2 = 0.153	x2 = 0.24	x2 = 0.3446	x2 = 0.4409	x2 = 0.5599	x2 = 0.6544	x2 = 0.7432	x2 = 0.8428	x2 = 0.9372
298.15 K	4.28	4	3.56	3.15	2.78	2.35	2.01	1.68	1.34	1.03
303.15 K	3.46	3.21	2.85	2.52	2.25	1.92	1.67	1.42	1.17	0.93
308.15 K	2.79	2.6	2.31	2.04	1.83	1.58	1.4	1.22	1.03	0.84
313.15 K	2.32	2.15	1.91	1.69	1.53	1.34	1.2	1.07	0.91	0.77

C=CCN=C=S + CN(C)c1ccccc1
303.15 K, 101 kPa
Settings	viscosity [mPa·s]
x1 = 0.2324	1.032
x1 = 0.4846	0.884
x1 = 0.7377	0.761

CCC(=O)c1ccccc1 + CN(C)c1ccccc1
viscosity [mPa·s], 101 kPa
Settings	303.15 K	308.15 K
x2 = 0.0658	1.475	1.429
x2 = 0.1256	1.445	1.398
x2 = 0.1989	1.411	1.362
x2 = 0.2531	1.388	1.338
x2 = 0.3331	1.358	1.305
x2 = 0.4074	1.332	1.279
x2 = 0.4755	1.309	1.254
x2 = 0.5265	1.293	1.237
x2 = 0.6121	1.268	1.21
x2 = 0.6923	1.249	1.187
x2 = 0.7625	1.229	1.167
x2 = 0.8156	1.217	1.155
x2 = 0.8625	1.208	1.144

CC(C)NC(C)C + CNC(C)=O
308.15 K, 101 kPa
Settings	viscosity [mPa·s]
x2 = 0.0739	0.3617
x2 = 0.2151	0.5132
x2 = 0.3226	0.7392
x2 = 0.4754	1.069
x2 = 0.6497	1.625
x2 = 0.786	2.167
x2 = 0.8761	2.652
x2 = 0.9277	2.973
x2 = 0.9762	3.194

CCC(=O)c1ccccc1 + CNC(C)=O
308.15 K, 101 kPa
Settings	viscosity [mPa·s]
x1 = 0.06	2.972
x1 = 0.1269	2.778
x1 = 0.1862	2.61
x1 = 0.2778	2.38
x1 = 0.3654	2.19
x1 = 0.4649	2.005
x1 = 0.5709	1.828
x1 = 0.6929	1.648
x1 = 0.8315	1.485

OCCO + CO
Settings	viscosity [mPa·s]
293.15 K, 101.33 kPa, x1 = 0.0476	0.724
293.15 K, 101.33 kPa, x1 = 0.0598	0.766
293.15 K, 101.33 kPa, x1 = 0.0918	0.914
293.15 K, 101.33 kPa, x1 = 0.1023	0.918
293.15 K, 101.33 kPa, x1 = 0.1742	1.243
293.15 K, 101.33 kPa, x1 = 0.2098	1.409
293.15 K, 101.33 kPa, x1 = 0.3191	2.142
293.15 K, 101.33 kPa, x1 = 0.3538	2.413
293.15 K, 101.33 kPa, x1 = 0.4072	2.906
293.15 K, 101.33 kPa, x1 = 0.4225	3.085
293.15 K, 101.33 kPa, x1 = 0.4474	3.338
293.15 K, 101.33 kPa, x1 = 0.4889	3.824
293.15 K, 101.33 kPa, x1 = 0.5955	5.485
293.15 K, 101.33 kPa, x1 = 0.6932	7.481
293.15 K, 101.33 kPa, x1 = 0.836	11.43
293.15 K, 101.33 kPa, x1 = 0.859	12.3
298.15 K, 101 kPa, x1 = 0.1	0.8363
298.15 K, 101 kPa, x1 = 0.2	1.245
298.15 K, 101 kPa, x1 = 0.2969	1.998
298.15 K, 101 kPa, x1 = 0.3	1.795
298.15 K, 101 kPa, x1 = 0.34	2.045
298.15 K, 101 kPa, x1 = 0.4	2.562
298.15 K, 101 kPa, x1 = 0.5	3.602
298.15 K, 101 kPa, x1 = 0.6	5.022
298.15 K, 101 kPa, x1 = 0.7	6.964
298.15 K, 101 kPa, x1 = 0.8	9.561
298.15 K, 101 kPa, x1 = 0.9	13.09
308.15 K, 101 kPa, x1 = 0.1	0.7007
308.15 K, 101 kPa, x1 = 0.2	1.011
308.15 K, 101 kPa, x1 = 0.2969	1.634
308.15 K, 101 kPa, x1 = 0.3	1.442
308.15 K, 101 kPa, x1 = 0.4	2.032
308.15 K, 101 kPa, x1 = 0.5	2.818
308.15 K, 101 kPa, x1 = 0.6	3.883
308.15 K, 101 kPa, x1 = 0.7	5.269
308.15 K, 101 kPa, x1 = 0.8	6.952
308.15 K, 101 kPa, x1 = 0.9	9.251
318.15 K, 101 kPa, x1 = 0.1	0.6194
318.15 K, 101 kPa, x1 = 0.2	0.8557
318.15 K, 101 kPa, x1 = 0.2969	1.36
318.15 K, 101 kPa, x1 = 0.3	1.172
318.15 K, 101 kPa, x1 = 0.4	1.59
318.15 K, 101 kPa, x1 = 0.5	2.134
318.15 K, 101 kPa, x1 = 0.6	2.844
318.15 K, 101 kPa, x1 = 0.7	3.783
318.15 K, 101 kPa, x1 = 0.8	4.96
318.15 K, 101 kPa, x1 = 0.9	6.432

S=C=S + CO
298.15 K, 101.33 kPa
Settings	viscosity [mPa·s]
x1 = 0.0437	0.5883
x1 = 0.0987	0.5838
x1 = 0.1521	0.5538
x1 = 0.2248	0.5669
x1 = 0.2969	0.57
x1 = 0.9488	0.4088

CCC(=O)c1ccccc1 + COCCO
viscosity [mPa·s], 101 kPa
Settings	x1 = 0.0624	x1 = 0.1302	x1 = 0.2041	x1 = 0.2852	x1 = 0.3744	x1 = 0.4731	x1 = 0.5827	x1 = 0.7054	x1 = 0.8434
303.15 K	1.568	1.562	1.557	1.551	1.545	1.54	1.534	1.529	1.523
308.15 K	1.394	1.398	1.403	1.408	1.414	1.422	1.431	1.442	1.454
313.15 K	1.234	1.246	1.259	1.274	1.292	1.312	1.334	1.359	1.388
318.15 K	1.108	1.125	1.145	1.167	1.192	1.22	1.251	1.287	1.328
